Laboratory results as given in patent US11542249B2, “BTK inhibitor compounds” (Eli Lilly and Company, priority 2017, dated 2023).

Assays:
Rat Oral Bioavailability = format: in vivo, Sprague-Dawley rats; conditions: Sprague-Dawley, plasma, PO 3 mg/kg vs IV 1 mg/kg, read-out: Rat Oral Bioavailability (% F)
Experimental: The test compound is administered to Sprague-Dawley rats intravenously (IV) at 1 mg/kg (using vehicles of either: 20% CAPTISOL® in 25 mM sodium phosphate buffer, pH2 quantum satis; or 25% DMA, 15% EtOH, 10% propylene glycol, 25% 2-pyrrolidone, and 25% purified water) and orally (PO) at 3 mg/kg (using a vehicle of 1% hydroxyethyl cellulose, 0.25% polysorbate 80, 0.05% Antifoam 1510-US, and purified water quantum satis). Serial blood samples are collected at 0.08, 0.25, 0.5, 1, 2, 4, 8, and 12 h post dose for IV bolus and at 0.25, 0.5, 1, 2, 4, 8, and 12 h post dose after oral administration. After treatment with an EDTA […], plasma is obtained by centrifugation and stored at −70° C. until analysis by LC-MS/MS. Test article concentration is determined in plasma and uploaded into the Watson LIMS™ system where noncompartmental analysis is used to calculate Area Under the Curve (AUC) for both IV and PO arms. Bioavailability (% F) is calculated via the following equation, %F=(AUCPO×DoseIV)/(AUCIV×DosePO)×100. Table 3 indicates the rat oral bioavailability of select BTK inhibitors.

[1] = test system: type II collagen-induced arthritis (CIA) rat model; test: Rat In Vivo Collagen-Induced Arthritis Assay; parameters: species or system Female Lewis rats; conditions: for % inhibition paw thickness AUC vs Vehicle control / % paw thickness AUC (mm) ± SE: CIA rats, 9 days; for arthritis severity in CIA rats: compared to vehicle treated CIA rats
Experimental: A type II collagen-induced arthritis (CIA) rat model may be used to evaluate the therapeutic effects of compounds. Female Lewis rats (Charles River Charles River Laboratories, Inc.) with a mean body weight of 155-175 g are used for the study. Animals are fed with standard rodent chow and provided water ad libitum. Immunization emulsion is prepared with 2 mg/ml bovine collagen-II mixed with an equal volume of incomplete Freund's adjuvant (IFA). Rats are immunized intradermally with 0.4 ml collagen emulsion in two sites each on the lower lumbar region, above the base of the tail on day 1, and again on day 8. Animals are randomized based on the paw thickness and body weight on day 11 into study groups, with 8 rats in each group. Compounds are prepared in 1% HEC/0.25% P80/0.05% anti-foam in purified water and dosed daily via oral gavage for 9 days. Paw thickness is quantitated daily using a caliper measurement in the right ankle site.
The inhibition by the compounds of the invention is evaluated using Dunnett's post test for multiple comparisons for the CIA rat groups treated with the indicated Example compound, at the indicated dose, as compared to CIA rat groups treated with vehicle, and differences of P<0.05 are considered to be significant. […] Mean sum paw thickness is decreased compared to vehicle treated CIA rats. Mean percent paw thickness inhibition during the treatment period illustrates dose-related improvement.
Table 4 indicates the in vivo activity for exemplified BTK inhibitors in the collagen-induced arthritis model (SE=standard error).

[2] = test system: activated B cells in human whole blood (CD69); test: Human Whole Blood CD69 in vitro assay (B cell activation, flow cytometry); format: cell-based; conditions: IC50 value ± standard deviation, anti-human-IgD-Dextran stimulation, read-out: HWB CD69 Rel IC50
Experimental: Human Whole Blood CD69 in Vitro Assay:
The HWB CD69 assay measures activated B cells in human whole blood using a flow cytometer. Compounds are diluted and added to assay plates with a Labcyte ECHO® 555 liquid handler. Compounds are tested in 10 point dose response curves (20 μM-0.001 μM) in 96-well v-bottom plates with a maximum DMSO concentration of 0.2%. Fresh blood from individual healthy volunteer is mixed with HEPES (0.5 ml HEPES added per 10 ml blood) and 100 μl/well is added to compound plates. The plates are sealed and incubated in a 37° C. incubator for 3 h. Anti-human-IgD-Dextran is added to each well to give a final concentration of 100 ng/ml, mixed, and put back into the incubator. After 1 h, the cells are washed with cold FACS buffer and transferred to a deep well plate. The cells are incubated with anti-human CD69-PE (BIOLEGEND®, clone FN50) and anti-human CD19-APC (BIOLEGEND®, clone HIB19) antibodies on ice for 20 min. The cells are washed and incubated in eBioscience™ 1-step Fix/Lyse solution (10×) at RT to lyse the red blood cells and fix the other cells. The white cells are pelleted and washed in FACS buffer and then brought up in read buffer. The suspended cells are transferred to 96-well round bottom plates and read on an IntelliCyt iQue® Screener Plus flow cytometer. From the SSC (Side Scatter Channel) vs FSC (Forward Scatter Channel) graph, the lymphocytes are identified. Lymphocytes are identified with gated on positive CD19 marker for quantify CD69 (a marker of activated B lymphocytes) MFI (mean fluorescent intensity/cell). The signal ratio is converted to percent inhibition using the following equation: % Inhibition=100−[(Test Compound−Median Min)/(Median Max−Median Min)×100].
(§1) The following Table 1 and Table 2 describes the relative IC50 data vs. human BTK, human EGFR, and human whole blood CD69.

human EGFR = human EGFR (Homo sapiens (Human), UniProt P00533); test: EGFR LANTHASCREEN Eu Kinase Binding Assay; conditions: IC50 value ± standard deviation; truncated GST-labeled EGFR, kinase tracer 199; read-out: hEGFR Rel IC50
Chain of human EGFR (P00533 668-1210): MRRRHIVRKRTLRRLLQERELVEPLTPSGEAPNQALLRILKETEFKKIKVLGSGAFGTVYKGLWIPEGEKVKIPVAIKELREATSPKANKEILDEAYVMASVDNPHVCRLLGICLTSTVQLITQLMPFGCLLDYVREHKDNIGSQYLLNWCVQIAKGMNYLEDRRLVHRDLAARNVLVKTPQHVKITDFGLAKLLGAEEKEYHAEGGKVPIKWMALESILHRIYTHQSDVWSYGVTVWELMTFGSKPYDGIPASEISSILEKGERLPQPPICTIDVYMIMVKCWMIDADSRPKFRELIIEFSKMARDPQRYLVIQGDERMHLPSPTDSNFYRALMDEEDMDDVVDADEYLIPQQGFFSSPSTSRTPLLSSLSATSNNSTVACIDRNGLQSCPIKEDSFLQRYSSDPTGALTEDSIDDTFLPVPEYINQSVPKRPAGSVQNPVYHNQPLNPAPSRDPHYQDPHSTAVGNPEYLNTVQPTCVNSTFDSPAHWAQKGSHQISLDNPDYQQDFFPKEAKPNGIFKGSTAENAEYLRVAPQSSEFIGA
Experimental: (§2) BTK and EGFR in Vitro Assays:
(§3) The BTK and EGFR biochemical assays utilize LANTHASCREEN® Eu Kinase Binding Assays from Thermo Fisher Scientific, measuring the binding of the kinase with a […] tracer. The assay buffer consists of 50 mM HEPES pH 7.5, 0.01% BRU™-35, 10 mM MgCl2, 1 mM EGTA, and 1 mM DTT. The test compounds are diluted and added to the assay plate with a Labcyte ECHO® 555 liquid handler. The compounds are tested in 10 point dose response curves (100 μM-0.005 μM) with a maximum DMSO concentration of 1%. The assays are performed in 20 μL in low-volume 384-well white proxiplates. For the BTK assay, the concentration of full-length His-labeled BTK in the assay is 5 nM, the Eu-anti-His antibody is 2 nM, and the kinase tracer 236 is 60 nM. For the EGFR assay, the concentration of truncated (amino acids 668-1210) GST-labeled EGFR is 5 nM, the Eu-anti-GST antibody is 2 nM, and the kinase tracer 199 is 10 nM. The components of the assay (compound, enzyme/antibody, tracer) are assembled and incubated for 30 min prior to being read on a Perkin-Elmer EnVision with excitation at 340 nm, tracer emission at 665 nm, and antibody emission at 615 nm. The signal ratio is converted to percent inhibition using the following equation: % Inhibition=100−[(Test Compound−Median Minimum)/(Median Maximum−Median Minimum)×100].

human BTK = human BTK (Homo sapiens (Human), UniProt Q06187); test: BTK LANTHASCREEN Eu Kinase Binding Assay; conditions: IC50 value ± standard deviation; full-length His-labeled BTK, kinase tracer 236; read-out: hBTK Rel IC50
Chain of human BTK (Q06187 whole entry): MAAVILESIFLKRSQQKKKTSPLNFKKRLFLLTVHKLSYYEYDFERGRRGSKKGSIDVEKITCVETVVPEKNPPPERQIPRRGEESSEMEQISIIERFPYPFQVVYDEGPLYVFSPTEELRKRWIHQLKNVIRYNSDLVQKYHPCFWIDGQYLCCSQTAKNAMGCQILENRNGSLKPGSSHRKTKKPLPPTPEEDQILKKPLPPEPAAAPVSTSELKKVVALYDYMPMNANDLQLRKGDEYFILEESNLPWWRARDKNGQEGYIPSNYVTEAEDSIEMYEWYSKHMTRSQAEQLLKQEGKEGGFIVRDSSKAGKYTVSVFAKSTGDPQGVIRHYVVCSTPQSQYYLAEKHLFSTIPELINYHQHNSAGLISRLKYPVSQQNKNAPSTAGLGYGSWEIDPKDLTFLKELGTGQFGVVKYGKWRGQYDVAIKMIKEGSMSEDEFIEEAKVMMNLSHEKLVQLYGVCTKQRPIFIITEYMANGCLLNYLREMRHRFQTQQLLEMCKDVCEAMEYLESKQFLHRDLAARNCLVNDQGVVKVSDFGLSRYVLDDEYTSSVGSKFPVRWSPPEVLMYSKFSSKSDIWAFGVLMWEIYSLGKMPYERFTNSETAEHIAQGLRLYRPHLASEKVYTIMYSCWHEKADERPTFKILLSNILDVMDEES
Experimental: as §2, §3, §1

| Structure (SMILES) | bioavailability (Rat Oral Bioavailability) [%] | % inhibition paw thickness AUC vs Vehicle control ([1]; 1 mg/kg/d oral) [%] | % paw thickness AUC (mm) ± SE ([1]; 1 mg/kg/d oral) [mm] | % inhibition paw thickness AUC vs Vehicle control ([1]; 3 mg/kg/d oral) [%] | % paw thickness AUC (mm) ± SE ([1]; 3 mg/kg/d oral) [mm] | IC50 [2] [nM] | IC50 (human EGFR) [nM] | IC50 (human BTK) [nM] | % inhibition paw thickness AUC vs Vehicle control ([1]; 10 mg/kg/d oral) [%] | % paw thickness AUC (mm) ± SE ([1]; 10 mg/kg/d oral) [mm] | arthritis severity in CIA rats [1] | % inhibition paw thickness AUC vs Vehicle control ([1]; 0.3 mg/kg/d oral) [%] | % paw thickness AUC (mm) ± SE ([1]; 0.3 mg/kg/d oral) [mm] |
| --- | --- | --- | --- | --- | --- | --- | --- | --- | --- | --- | --- | --- | --- |
| C=CC(=O)N1CC[C@H](Nc2cncc(-c3cnc(Oc4cccc(OC(F)F)c4)nc3)c2)C1 [Example 5, 1-[(3S)-3-[[5-[2-[3-(difluoromethoxy)phenoxy]pyrimidin-5-yl]-3-pyridyl]amino]pyrrolidin-1-yl]prop-2-en-1-one] | 36.6 | 34 | 71.68 ± 2.24 | 58 | 67.18 ± 1.07 | 485 ± 234 | – | – | – | – | – | – | – |
| C=CC(=O)N1CCC(Nc2cncc(-c3cnc(Nc4cccc(Cl)c4)nc3)c2)CC1 [Example 19, 1-[4-[[5-[2-(3-chloroanilino)pyrimidin-5-yl]-3-pyridyl]amino]-1-piperidyl]prop-2-en-1-one] | 79.2 | – | – | – | – | 148 ± 33.1 | 523 ± 112 | < 5 | – | – | – | – | – |
| C=CC(=O)N1CC(Nc2cncc(-c3cnc(Oc4cccc(OC(F)F)c4)nc3)n2)C1 [Example 24, 1-[3-[[6-[2-[3-(difluoromethoxy)phenoxy]pyrimidin-5-yl]pyrazin-2-yl]amino]azetidin-1-yl]prop-2-en-1-one] | 41 | 28 | 65.04 ± 2.31 | 49 | 61.43 ± 4.47 | 177 ± 41.6 | – | 8.53 ± 3.24 | 63 | 59.24 ± 1.49 | dose-related reduction | – | – |
| C=CC(=O)N1CC(Nc2cncc(-c3cnc(Oc4cccc(OC(F)(F)F)c4)nc3)n2)C1 [Example 27, 1-[3-[[6-[2-[3-(trifluoromethoxy)phenoxy]pyrimidin-5-yl]pyrazin-2-yl]amino]azetidin-1-yl]prop-2-en-1-one] | 38.4 | 24 | 73.30 ± 0.95 | 45 | 69.58 ± 1.26 | 664 ± 314 | 10400 ± 11500 | 33.7 ± 10.8 | – | – | dose-related reduction | – | – |
| C=CC(=O)N1CC(Nc2cncc(-c3cnc(Oc4cccc(Cl)c4)nc3)n2)C1 [Example 31, 1-[3-[[6-[2-(3-chlorophenoxy)pyrimidin-5-yl]pyrazin-2-yl]amino]azetidin-1-yl]prop-2-en-1-one] | 54.1 | 62 | 66.10 ± 1.83 | 81 | 63.70 ± 0.96 | 419 ± 118 | 366 ± 87 | 9.49 ± 3.21 | 82 | 64.33 ± 1.00 | dose-related reduction | – | – |
| C=CC(=O)N1CC[C@H](Nc2cncc(-c3cnc(Nc4cccc(OC(F)(F)F)c4)nc3)n2)C1 [Example 33, 1-[(3S)-3-[[6-[2-[3-(trifluoromethoxy)anilino]pyrimidin-5-yl]pyrazin-2-yl]amino]pyrrolidin-1-yl]prop-2-en-1-one] | 44.6 | 52 | 68.32 ± 2.30 | 59 | 67.00 ± 1.52 | 261 ± 145 | 22200 ± 19500 | 9.44 ± 2.26 | – | – | dose-related reduction | 24 | 73.61 ± 2.09 |
| C=CC(=O)N1CCC(Nc2cncc(-c3cnc(Oc4cccc(Cl)c4)nc3)n2)CC1 [Example 44, 1-[4-[[6-[2-(3-chlorophenoxy)pyrimidin-5-yl]pyrazin-2-yl]amino]-1-piperidyl]prop-2-en-1-one] | 36.8 | – | – | – | – | 126 ± 29.7 | 207 ± 31.9 | 6.11 | – | – | – | – | – |
| CN(C)C/C=C/C(=O)N1CCC(Nc2cncc(-c3cnc(Oc4cccc(Cl)c4)nc3)n2)CC1 [Example 45, (E)-1-[4-[[6-[2-(3-chlorophenoxy)pyrimidin-5-yl]pyrazin-2-yl]amino]-1-piperidyl]-4-(dimethylamino)but-2-en-1-one] | – | – | – | – | – | 466 ± 159 | 52600 ± 28800 | 43.8 ± 4.17 | – | – | – | – | – |
| CN(C)C/C=C/C(=O)N1CCC(Nc2cncc(-c3cnc(Nc4cccc(Cl)c4)nc3)n2)CC1 [Example 46, (E)-1-[4-[[6-[2-(3-chloroanilino)pyrimidin-5-yl]pyrazin-2-yl]amino]-1-piperidyl]-4-(dimethylamino)but-2-en-1-one] | – | – | – | – | – | 157 ± 52.3 | 6040 ± 2090 | < 5 | – | – | – | – | – |
| C=CC(=O)N1CCC(Nc2cncc(-c3cnc(Nc4cccc(Cl)c4)nc3)c2)CC1C (stereo not shown) [Example 47, 1-[4-[[5-[2-(3-chloroanilino)pyrimidin-5-yl]-3-pyridyl]amino]-2-methyl-1-piperidyl]prop-2-en-1-one] | – | – | – | – | – | 355 ± 39 | 6100 | 6.7 | – | – | – | – | – |
